These results are taken from patent US6034092A, “2-[2-[(2-hydroxyethyl)amino]ethy [ l]-5-[[2-methylamino)ethyl]amino]indazolo4,3-gh]isoquinolin-6(2H)-one as antitumor agent” (priority 1995, dated 2000).

For data set [1] the following is noted: man; cited from earlier work.
For data set [2] the following is noted: rat; cited from earlier work.
A further data set relates to P388 murine leukemia. Description: in vivo P388 murine leukemia model, iv/iv. The settings on record: for survival time of the treated animals (in words): P388, compared with controls (untreated animals) or with analogues. How it is done:
(§1) The evaluation of the biological activity for the compound of this invention was performed "in vitro" and "in vivo" following the protocols developed by the U.S. National Cancer Institute.
Treatment was initiated approximately 24 hours after tumor transplantation and dosages of the product were administered iv according to preestablished protocols, usually at 3-day intervals. The studies were done over a 60 day period and the date of death for each animal was recorded. The % T/C was determined using the median survival time (MST) for each group according to the formula
T/C%=[(MSTtreated)/(MSTcontrols)]×100

In a further data set the test system is human breast MX-1 tumor. Description: in vivo human breast tumor xenograft MX-1 in mice, sc/iv. The following applies: MX-1 sc/iv q7dx3. The method, then:
as §1
(§2) Further in vivo studies of biological activity of the compound of the invention were carried out using two human tumor xenografts, the human breast MX-1 tumor and the ovary tumor A2780 (Table II). […] The "tumor weight inhibition" can be evaluated as follows:
(§3) TWI%=100-[(average relative weight of the tumortreated /average
(§4) relative weight of the tumorcontrols)100]
(§5) By tumor regression, it is meant the reduction of the tumor mass measured 30 days after the end of the treatment compared with the tumor starting weight. Complete tumor regression means the disappearance of the tumor mass.
(§6) In vivo biological evaluation of the compound of the invention (I),
(§7) and A 2780) models in mice
For orientation: Xenograft models place foreign cells or tissue in a host animal.

A further data set deals with ovary tumor A2780. The data set can be described thus: in vivo human ovary tumor xenograft A2780 in mice, sc/iv. The following applies: A 2780 sc/iv q4dx3; for Tumor regression: 30 days after end of treatment. The method, then: as §1, §2, §3, §4, §5, §6, §7
The conditions of data set [3]: W.H.O. grade; dose-limiting, phase I and II; cited from earlier work.
The subject of data set [4] is human colon adenocarcinoma cell line (LoVo). The data set can be described thus: in vitro cytotoxic activity, MTT assay, LoVo. Type of data set: cell-based. The following applies: for IC50: Homo sapiens, read-out: IC50 ± S.D. How it is done: as §1
The evaluation of the "in vitro" cytotoxic activity was performed using a human colon adenocarcinoma cell line (Lovo) isolated from a metastatic nodule.

The conditions of data set [5]: limiting aspect; cited from earlier work.
The subject of data set [6] is cell histotypes developing resistance already against doxorubicin. The following applies: doxorubicin-resistant cell histotypes, over-expression of glycoprotein P; cited from earlier work.
For data set [7], the system named is human breast MX-1 tumor and the ovary tumor A2780. Description: in vivo antitumor evaluation in human tumor xenografts MX-1 and A2780. Set-up: species or system human tumor xenografts in mice. The following applies: for complete tumor regressions (in words): contrary to CI-941. How it is done:
as §2, §3, §4, §5

Where [8] appears, read: 1 hour after treatment with the medicament.

Each structure is given as a SMILES string. ≈ marks a conversion by molar mass, not a printed value. Where two headings read alike, the source gives them in different places.

As to `O=C1c2c(O)cccc2-c2nn(CCNCCO)c3ccc(NCCNCCO)c1c23` [CI-941], in data set [1], the cardiotoxicity result is given as “irreversible cardiotoxicity”. In addition, the nephrotoxicity result in data set [2] is given as “marked nephrotoxicity”. Moreover, the T/C % in the data set with P388 murine leukemia (P388 iv/iv + 1,4,7, 6 mg/kg) was determined as 133%; in the data set with P388 murine leukemia (P388 iv/iv + 1,4,7, 9 mg/kg), 144%; in the data set on P388 murine leukemia (P388 iv/iv + 1,4,7, 13.5 mg/kg), 133%. In addition, the Tox. in the data set with P388 murine leukemia (P388 iv/iv + 1,4,7, 6 mg/kg) is 0/8; in the data set on P388 murine leukemia (P388 iv/iv + 1,4,7, 9 mg/kg), 0/8; in the data set on P388 murine leukemia (P388 iv/iv + 1,4,7, 13.5 mg/kg), 0/8; with human breast MX-1 tumor (9 mg/kg), 0/7; with human breast MX-1 tumor (13.5 mg/kg), 0/40; with human breast MX-1 tumor (17.5 mg/kg), 9/33. Besides, the results for the Tox. in the data set with ovary tumor A2780 (8 mg/kg), in the data set on ovary tumor A2780 (10.4 mg/kg) and with ovary tumor A2780 (13.5 mg/kg) were 0/7, 0/7 and 5/7, respectively. In addition, the TWI % in the data set with human breast MX-1 tumor (9 mg/kg) was determined as 83%; in the data set on human breast MX-1 tumor (13.5 mg/kg), 93%; in the data set with human breast MX-1 tumor (17.5 mg/kg), 97%; in the data set with ovary tumor A2780 (8 mg/kg) it was 87%; in the data set on ovary tumor A2780 (10.4 mg/kg) it was 97%; in the data set with ovary tumor A2780 (13.5 mg/kg), 100%. Also, the figures for the Tumor regression in the data set on ovary tumor A2780 (8 mg/kg), with ovary tumor A2780 (10.4 mg/kg) and in the data set on ovary tumor A2780 (13.5 mg/kg) were 0/7, 0/7 and 1/7, respectively. The leukopenia entry in [3] is “severe leukopenia (W.H.O. grade 3 and 4)”. In data set [3], the neutropenia entry is “neutropenia (W.H.O. grade 4)”. Besides, the IC50 (in general, the concentration needed to halve the response being measured) in [4] (1 h) was 0.039 ± 0.035 µg/mL (≈ 0.0917 µM).
As for `O=C1c2ccccc2C(=O)c2c(NCCNCCO)ccc(NCCNCCO)c21` [ametantrone, 4-bis{[2-(2-hydroxyethylamino)ethyl]amino]anthracene-9,10-dione], the “toxicity (myelodepression)” value in data set [5] is “mielodepressive toxic effect”. For the same compound, the cross-resistance result in [6] is listed as “cross-resistance”.
Take `CNCCNc1ccc2c3c(nn2CCNCCO)-c2cnccc2C(=O)c13` [compound (I)]: the “tumor weight inhibition (in words)” value in data set [7] (MX-1 and A2780 xenografts, compared with CI-941) is given as “activity equal if not higher than CI-941”. In addition, the “toxic effects (in words)” value in [7] (tested doses) is given as “absence of toxic effects”. The “complete tumor regressions (in words)” value in data set [7] (tested doses, listed as 2-[2-[(2-hydroxyethyl)amino]ethyl]-5-[[2-(methylamino)ethyl]amino]indazolo[4,3-g) is recorded as “complete regression of the tumor in a statistically significant number of animals”; in [7] (tested doses, listed as compound of the invention) it was “a significant number of complete tumor regressions”. For the same compound, the “survival time of the treated animals (in words)” value is reported as “higher increase in the average survival time of the treated animals (expressed as % T/C) than that obtained with its analogues” in the data set with P388 murine leukemia (listed as 2-[2-[(2-hydroxyethyl)amino]ethyl]-5-[[2-(methylamino)ethyl]amino]indazolo[4,3-g) and “active in increasing the survival time of the treated animals” with P388 murine leukemia (listed as compound of the invention). Moreover, the T/C % in the data set with P388 murine leukemia (P388 iv/iv + 1,4,7, 7.5 mg/kg) worked out at 167%. In the data set on P388 murine leukemia (compared with mitoxantrone, Table II), the “tolerability (in words)” value is “better tolerated than mitoxantrone”. Besides, the Tox. with P388 murine leukemia (mouse, in vivo, iv, 7.5 mg/kg) was 0/8; with human breast MX-1 tumor (8.9 mg/kg), 0/5; with human breast MX-1 tumor (17.5 mg/kg), 0/5; in the data set with ovary tumor A2780 (7.5 mg/kg), 0/7; with ovary tumor A2780 (9.7 mg/kg), 0/7. For the same compound, the TWI % in the data set on human breast MX-1 tumor (8.9 mg/kg) was 78%; with human breast MX-1 tumor (17.5 mg/kg), 96%; in the data set with ovary tumor A2780 (7.5 mg/kg), 99%; in the data set with ovary tumor A2780 (9.7 mg/kg), 100%. Besides, the Tumor regression in the data set with ovary tumor A2780 (7.5 mg/kg) is listed as 4/7; in the data set with ovary tumor A2780 (9.7 mg/kg), 6/7. The IC50 in data set [4] (setting [8]) is 0.54 ± 0.17 µg/mL (≈ 1.42 µM). Further, the “in vitro cytotoxic activity (in words)” value in data set [4] (MTT assay, compared with doxorubicin) is “activity comparable to doxorubicin”.
`COc1cccc2c1C(=O)c1c(O)c3c(c(O)c1C2=O)C[C@@](O)(C(=O)CO)C[C@@H]3O[C@H]1C[C@H](N)[C@H](O)[C@H](C)O1` [doxorubicin]: in data set [4] (1 h), the IC50 was 0.7 ± 0.49 µg/mL (≈ 1.29 µM).
As to `O=C1c2c(O)ccc(O)c2C(=O)c2c(NCCNCCO)ccc(NCCNCCO)c21` [mitoxantrone, 5,8-dihydroxy-1,4-bis{[2-(2-hydroxyethylamino)ethyly]amino]anthracene-9,10-dione], in data set [5], the “toxicity (cardiotoxicity)” value is “cardiotoxicity” and the “toxicity (myelodepression)” value is “mielodepressive toxic effect”. Besides, in the data set on P388 murine leukemia (P388 iv/iv + 1,4,7, 3 mg/kg), the T/C % is given as 195% and the Tox. is 16/284. Moreover, the TWI % in the data set on human breast MX-1 tumor (4.5 mg/kg) is listed as 74%. Also, the cross-resistance result in data set [6] was “cross-resistance”. For the same compound, the IC50 in data set [4] (setting [8]) turned out to be 0.026 ± 0.017 µg/mL (≈ 0.0585 µM).
